Laboratory results published in US8067590B2, “Pyridone derivates with MCH antagonistic activity and medicaments comprising these compounds” (Boehringer Ingelheim International GmbH, priority 2006, dated 2011).

Experiments:
hMCH-1R = target: T1, hMCH-1R (Homo sapiens, UniProt Q99705); assay: MCH-1 receptor binding test (125I-MCH binding to membranes of hMCH-1R transfected CHO/Galpha16 cells)
T1 construct: expressed in transfected cells; host or cells: CHO/Galpha16 cells (membranes)
Experimental: Membranes from CHO/Galpha16 cells stably transfected with human hMCH-1R are resuspended using a syringe (needle 0.6×25 mm) and diluted in test buffer (50 mM HEPES, 10 mM MgCl2, 2 mM EGTA, pH 7.00; 0.1% bovine serum albumin (protease-free), 0.021% bacitracin, 1 μg/ml aprotinin, 1 μg/ml leupeptin and 1 μM phosphoramidone) to a concentration of 5 to 15 μg/ml.
After the incubation the reaction is filtered using a cell harvester through 0.5% PEI treated fibreglass filters (GF/B, Unifilter Packard). The membranebound radioactivity retained on the filter is then determined after the addition of scintillator substance (Packard Microscint 20) in a measuring device (TopCount of Packard). The non-specific binding is defined as bound radioactivity in the presence of 1 micromolar MCH during the incubation period.
The analysis of the concentration binding curve is carried out on the assumption of one receptor binding site.

MCH-1R [1] = target: T2, MCH-1R (Rattus norvegicus, UniProt P97639); parameters: host or cells: whole animals (in vivo); settings: animals treated with the antagonist; cited from earlier work
T2 sequence (P97639 whole entry): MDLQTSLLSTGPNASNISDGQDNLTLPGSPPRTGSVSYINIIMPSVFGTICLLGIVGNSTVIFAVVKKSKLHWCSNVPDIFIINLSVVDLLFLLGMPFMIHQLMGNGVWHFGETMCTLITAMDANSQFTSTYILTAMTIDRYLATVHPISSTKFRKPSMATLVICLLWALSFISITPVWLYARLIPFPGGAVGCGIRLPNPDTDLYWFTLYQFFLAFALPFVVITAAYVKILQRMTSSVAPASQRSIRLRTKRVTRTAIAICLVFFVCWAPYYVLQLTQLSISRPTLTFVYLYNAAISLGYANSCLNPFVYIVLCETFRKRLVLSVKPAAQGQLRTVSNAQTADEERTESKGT

MCH-1R [2] = target: T2, MCH-1R; parameters: host or cells: rats (in vivo); settings: rats; cited from earlier work

T1 sequence (Q99705 whole entry): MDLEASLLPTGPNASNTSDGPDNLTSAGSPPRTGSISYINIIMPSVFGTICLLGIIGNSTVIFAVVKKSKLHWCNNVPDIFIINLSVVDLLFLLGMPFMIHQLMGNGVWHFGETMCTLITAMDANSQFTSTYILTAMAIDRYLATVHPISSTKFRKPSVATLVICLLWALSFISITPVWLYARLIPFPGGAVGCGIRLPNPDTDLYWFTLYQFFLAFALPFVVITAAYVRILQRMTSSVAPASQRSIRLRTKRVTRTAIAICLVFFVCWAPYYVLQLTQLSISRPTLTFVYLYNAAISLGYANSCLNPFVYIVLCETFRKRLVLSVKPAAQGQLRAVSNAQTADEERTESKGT

SMILES	IC50 (hMCH-1R) [nM]	other results
O=c1cc(OCc2ccccc2)cnn1CCc1ccc(CN2CCCC2)cc1 [Example 21.2]	3	–
O=c1cc(OCc2ccccc2)ccn1CCc1ccc(CN2CCCC2)s1 [Example 28.1, 4-Benzyloxy-1-[2-(5-pyrrolidin-1-ylmethyl-thiophen-2-yl)-ethyl]-1H-pyridin-2-one]	26	–
O=C(Cn1ccc(OCc2ccccc2)cc1=O)c1ccc(CN2CCC(O)CC2)cc1 [Example 29.3, 4-Benzyloxy-1-{2-[4-(4-hydroxy-piperidin-1-ylmethyl)-phenyl]-2-oxo-ethyl}-1H-pyridin-2-one]	16	–
O=C(Cn1ccc(OCc2ccccc2)cc1=O)c1ccc(CN2CC[C@@H](O)C2)cc1 [Example 29.11]	14	–
O=C(Cn1ncc(OCc2ccccc2)cc1=O)c1ccc(CN2CCC(O)CC2)cc1 [Example 32.2]	12	–
O=C(Cn1ncc(OCc2ccccc2)cc1=O)c1ccc(CNCC2CC2)cc1 [Example 32.8]	6	–
O=C(Cn1ncc(OCc2ccc(Cl)cn2)cc1=O)c1ccc(CN2CCCC2)cc1 [Example 33.8]	19	–
O=C(Cn1cnc(OCc2ccccc2)cc1=O)c1ccc(CN2CCCCC2)cc1 [Example 34.3]	16	–
CN1CCc2cc(C(=O)Cn3ccc(OCc4ccccc4)cc3=O)ccc2C1 [Example 46.2, 4-Benzyloxy-1-[2-(2-methyl-1,2,3,4-tetrahydro-isoquinolin-6-yl)-2-oxo-ethyl]-1H-pyridin-2-one]	21	–
COCC1=C(C(=O)OC)[C@H](c2ccc(F)c(F)c2)N(C(=O)NCCCN2CCC(c3cccc(NC(C)=O)c3)CC2)C(=O)N1 [SNAP-7941]	–	body weight effect in long term trials (MCH-1R [1]): lose significant amounts of weight; effects in behavioural experiments (MCH-1R [2]): anxiolytic and antidepressant effects

Continued, in another order:

IC50 (hMCH-1R) [nM]	SMILES	other results
8	CC(=O)NC1CCN(Cc2ccc(CCn3ccc(OCc4ccsc4)cc3=O)cc2)CC1 [Example 4.2, N-[1-(4-{2-[2-Oxo-4-(thiophen-3-ylmethoxy)-2H-pyridin-1-yl]-ethyl}-benzyl)-piperidin-4-yl]-acetamide]	–
13	O=c1cc(OCc2ccco2)ccn1CCc1ccc(CN2CCCC2)cc1 [Example 6.1, 4-(Furan-2-ylmethoxy)-1-[2-(4-pyrrolidin-1-ylmethyl-phenyl)-ethyl]-1H-pyridin-2-one]	–
51	O=C(Cn1ccc(OCc2ccccc2)cc1=O)c1ccc2c(c1)CCN(C(=O)C(F)(F)F)CC2 [Example 22.1, 4-Benzyloxy-1-{2-oxo-2-[3-(2,2,2-trifluoro-acetyl)-2,3,4,5-tetrahydro-1H-3-benzazepin-7-yl]-ethyl}-1H-pyridin-2-one]	–
7	O=c1cc(OCc2ccccc2)ccn1CCc1ccc2c(c1)CCNCC2 [Example 23.2, 4-Benzyloxy-1-[2-(2,3,4,5-tetrahydro-1H-3-benzazepin-7-yl)-ethyl]-1H-pyridin-2-one]	–
8	O=c1cc(OCc2ccccc2)ccn1CCc1ccc2c(c1)CCNC2 [Example 27.2, 4-Benzyloxy-1-[2-(1,2,3,4-tetrahydro-isoquinolin-6-yl)-ethyl]-1H-pyridin-2-one]	–
16	CC1(O)CCN(Cc2ccc(C(=O)Cn3ccc(OCc4ccccc4)cc3=O)cc2)CC1 [Example 29.4]	–
18	O=C(Cn1ccc(OCc2ccccc2)cc1=O)c1ccc(CN2CC(O)C2)cc1 [Example 29.13]	–
9	CC1(O)CCN(Cc2ccc(C(=O)Cn3ncc(OCc4ccccc4)cc3=O)cc2)CC1 [Example 32.3]	–
23	CN1CCN(Cc2ccc(C(=O)Cn3ncc(OCc4ccccc4)cc3=O)cc2)CC1 [Example 32.10]	–
33	CN1Cc2ccc(C(=O)Cn3ccc(OCc4ccccc4)cc3=O)cc2C1 [Example 37.2, 4-Benzyloxy-1-[2-(2-methyl-2,3-dihydro-1H-isoindol-5-yl)-2-oxo-ethyl]-1H-pyridin-2-one]	–
34	O=c1cc(OCc2ccc(Br)cn2)ccn1CC(O)c1ccc2c(c1)CNCC2 (centres unmarked) [Example 39.1, 4-(5-Bromo-pyridin-2-ylmethoxy)-1-[2-hydroxy-2-(1,2,3,4-tetrahydro-isoquinolin-7-yl)-ethyl]-1H-pyridin-2-one]	–
17	O=C(Cn1ncc(OCc2ccccc2)cc1=O)c1ccc2c(c1)CNCC2 [Example 41.1, 5-Benzyloxy-2-[2-oxo-2-(1,2,3,4-tetrahydro-isoquinolin-7-yl)-ethyl]-2H-pyridazin-3-one]	–
14	CN1CCc2ccc(C(=O)Cn3ncc(OCc4ccccc4)cc3=O)cc2C1 [Example 42.1, 5-Benzyloxy-2-[2-(2-methyl-1,2,3,4-tetrahydro-isoquinolin-7-yl)-2-oxo-ethyl]-2H-pyridazin-3-one]	–
20	CN1CCc2sc(C(=O)Cn3ncc(OCc4ccccc4)cc3=O)cc2C1 [Example 44.2, 5-Benzyloxy-2-[2-(5-methyl-4,5,6,7-tetrahydro-thieno[3,2-c]pyridin-2-yl)-2-oxo-ethyl]-2H-pyridazin-3-one]	–
27	CC(c1ccc(C(=O)Cn2ncc(OCc3ccccc3)cc2=O)cc1)N1CCN(C)CC1 (centres unmarked) [Example 47.5]	–
